Test results as given in US7271260B2, “3,4-dihydroquinazoline derivatives as T-type calcium channel blockers and method of preparing the same” (Korea Institute of Science and Technology, priority 2004, dated 2007).
Where two headings read alike, the source gives them in different places.

Legend:
[1] = biological target: T1, T-type calcium channel α1H (Cav3.2) (Homo sapiens, UniProt O95180); assay: Two-electrode voltage clamp on Xenopus unfertilized oocytes expressing α1H T-type calcium channel; type: cell-based; conditions: test potential -20 mV from -90 mV; for inhibition at 100 µM: read-out: inhibitory effect (blocking percentage), Xenopus oocyte (α1H) at 100 μM
T1 construct: expressed in transfected cells; host or cells: Xenopus laevis unfertilized oocytes injected with cRNA (pGEM-HEA linearised with AflII, T7 transcription)
Protocol: In order to express a gene encoding T-type calcium channel α1H (Cav3.2) (Cribbs, L. L. et al., Circ. Res., 1998, 83, 103-109) in unfertilized Xenopus oocytes, pGEM-HEA was treated with restriction enzyme AflII to obtain a DNA fragment containing 5′-terminal region having the T-type calcium channel cDNA (AF051946). cRNA having a corresponding sequence to that of the fragment was synthesized using T7 RNA polymerase according to the manufacturer's instructions (mMESSAGE mMACHINE kit, Ambion, Austin, U.S.A.). The synthesized cRNA was quantified by measuring the O.D. value with a spectrophotometer. At this time, unfertilized oocytes were prepared from female Xenopus laevis (Xenopus I, U.S.A.) according to the following method. After the frog's abdomen was incised by about 1 cm, three to four lobes were detached therefrom with scissors and separated into small pieces to which several oocytes were attached. The small pieces were hydrolyzed in OR solution (82.5 mM NaCl, 2.5 mM KCl, 1 mM MgCl2, 5 mM HEPES, pH 7.6) and supplemented with collagenase type IA (Sigma, U.S.A.) to remove defolliculation. After selecting healthy oocytes with a dissecting microscope, they were soaked in SOS solution (100 mM NaCl, 2 mM KCl, 1.8 mM CaCl2, 1 mM MgCl2, 5 mM HEPES, 2.5 mM pyruvate, […] gentamicin, pH 7.6) for 3 to 4 hours to revitalize them. 2 to 5 ng of cRNA was injected into each oocyte using Nano-injector. The oocytes were subjected to a test in order to examine the electrical properties of the channel expressed therefrom 4 to 5 days after the injection while being maintained at 18° C.
The current of the calcium channel expressed from the Xenopus unfertilized oocytes was measured according to a two-electrode voltage clamping method. The current was measured in 10 mM Ba^2+ solution (10 mM Ba(OH)2, 90 mM NaOH, 1 mM KCl, 0.1 mM EDTA, 5 mM HEPES, pH was adjusted to 7.4 with methanesulfonic acid). At this time, the voltage clamp and current measurement were regulated with an amplifier for unfertilized oocytes (Model OC-725C, Warner Instrument Corp., U.S.A.), and analog signals were converted into digital signals using Digidata 2000A (Analog-Digital converter, Axon Instrument). The acquisition, storage and analysis of all data were recorded in Pentium IV computer via pCLAMP8. The data were mainly collected at 5 KHz and filtered at 1 KHz (Model 902 filter; Frequency devices located at Harverhill, Mass., U.S.A.). The T-type current was generated by imposing test electric potential of −20 mV every 15 seconds on the unfertilized oocytes, the potential of which was fixed at −90 mV. A blocking percentage was calculated by comparing the […] before and after the drug treatment.

[2] = biological target: T2, α1G T-type calcium channel (Rattus norvegicus, UniProt O54898); assay: Whole cell patch clamp on HEK 293 cells expressing α1G T-type calcium channel; type: cell-based; conditions: for IC50: read-out: IC50, HEK293 cells (α1G)
T2 construct: expressed in transfected cells; Perez-Reyes, University of Virginia
Protocol: HEK 293 cells were cultured in Dulbecco's modified Eagle's medium (DMEM) supplemented with 10% fetal bovine serum (FBS) and 1% penicillin/streptomycin (v/v) in 36.5° C. humidified incubator (95% air-5% CO2). The culture solution was replaced with a fresh medium every 3 to 4 days and the cultured cells were subjected to sub-culture every week. At this time, the culture solution was treated with G-418 (0.5 mg/ml) solution so that only HEK 293 cells expressing α1G T-type calcium channel can grow. The cells used for the T-type calcium channel activity assay were cultured on a cover slip coated with poly-L-lysine (0.5 mg/ml) whenever sub-cultured and their calcium channel activity was recorded 2 to 7 days after the cultivation. The current of the T-type calcium channel at a single cell level was measured according to an electrophysiological whole cell patch clamping method using EPC-9 amplifier (HEKA, German). At this time, a cell exterior solution [140 mM NaCl, 2 mM CaCl2, 10 mM HEPES (pH 7.4)] and a cell interior solution [KCl 130 mM, HEPES 10 mM, EGTA 11 mM, MgATP 5 mM (pH 7.4)] were employed. The inward current caused by the T-type calcium channel activation was measured according to a T-type calcium channel protocol activated at low current. Such current occurs when the cells were converted into a whole-cell recording mode by stabbing a microglass electrode having 3-4 MΩ resistance, which was filled with the cell interior solution into a single cell and depolarized at −30 mV (50 ms duration period) every 10 seconds with fixing membrane potential to −100 mV.
In order to confirm whether the cells and methods used in Test Example 2 are a suitable screening system for selecting T-type calcium channel blockers, the results obtained in Example 2 were compared with those of α1G T-type calcium channel study reported in a public document (Monteil, A. et al., J. Biol. Chem. 275, 6090-6100, 2000). […] Thus, the candidate compounds were subjected to a test for their inhibitory effects on the T-type calcium channel according to the screening system of the present invention, as follows. Each compound was dissolved in 100% dimethylsulfoxide (DMSO) to prepare 10 mM stock solution. The inhibitory effect on the T-type calcium channel current was examined in 10 μM sample solution (containing 0.1% DMSO) prepared by diluting the stock solution by 1000-fold. The cells were treated with each compound at a concentration of 10 μM for 30 to 60 sec with the cell exterior solution.

[3] = HEK293, 10 μM, HEK 293 cells expressing α1G, 30 to 60 sec treatment, read-out: inhibitory effect on peak current, HEK293 cells (α1G) at 10 μM
[4] = HEK293, read-out: inhibitory effect on peak current, HEK293 cells (α1G) at 10 μM

T2 sequence (O54898 whole entry): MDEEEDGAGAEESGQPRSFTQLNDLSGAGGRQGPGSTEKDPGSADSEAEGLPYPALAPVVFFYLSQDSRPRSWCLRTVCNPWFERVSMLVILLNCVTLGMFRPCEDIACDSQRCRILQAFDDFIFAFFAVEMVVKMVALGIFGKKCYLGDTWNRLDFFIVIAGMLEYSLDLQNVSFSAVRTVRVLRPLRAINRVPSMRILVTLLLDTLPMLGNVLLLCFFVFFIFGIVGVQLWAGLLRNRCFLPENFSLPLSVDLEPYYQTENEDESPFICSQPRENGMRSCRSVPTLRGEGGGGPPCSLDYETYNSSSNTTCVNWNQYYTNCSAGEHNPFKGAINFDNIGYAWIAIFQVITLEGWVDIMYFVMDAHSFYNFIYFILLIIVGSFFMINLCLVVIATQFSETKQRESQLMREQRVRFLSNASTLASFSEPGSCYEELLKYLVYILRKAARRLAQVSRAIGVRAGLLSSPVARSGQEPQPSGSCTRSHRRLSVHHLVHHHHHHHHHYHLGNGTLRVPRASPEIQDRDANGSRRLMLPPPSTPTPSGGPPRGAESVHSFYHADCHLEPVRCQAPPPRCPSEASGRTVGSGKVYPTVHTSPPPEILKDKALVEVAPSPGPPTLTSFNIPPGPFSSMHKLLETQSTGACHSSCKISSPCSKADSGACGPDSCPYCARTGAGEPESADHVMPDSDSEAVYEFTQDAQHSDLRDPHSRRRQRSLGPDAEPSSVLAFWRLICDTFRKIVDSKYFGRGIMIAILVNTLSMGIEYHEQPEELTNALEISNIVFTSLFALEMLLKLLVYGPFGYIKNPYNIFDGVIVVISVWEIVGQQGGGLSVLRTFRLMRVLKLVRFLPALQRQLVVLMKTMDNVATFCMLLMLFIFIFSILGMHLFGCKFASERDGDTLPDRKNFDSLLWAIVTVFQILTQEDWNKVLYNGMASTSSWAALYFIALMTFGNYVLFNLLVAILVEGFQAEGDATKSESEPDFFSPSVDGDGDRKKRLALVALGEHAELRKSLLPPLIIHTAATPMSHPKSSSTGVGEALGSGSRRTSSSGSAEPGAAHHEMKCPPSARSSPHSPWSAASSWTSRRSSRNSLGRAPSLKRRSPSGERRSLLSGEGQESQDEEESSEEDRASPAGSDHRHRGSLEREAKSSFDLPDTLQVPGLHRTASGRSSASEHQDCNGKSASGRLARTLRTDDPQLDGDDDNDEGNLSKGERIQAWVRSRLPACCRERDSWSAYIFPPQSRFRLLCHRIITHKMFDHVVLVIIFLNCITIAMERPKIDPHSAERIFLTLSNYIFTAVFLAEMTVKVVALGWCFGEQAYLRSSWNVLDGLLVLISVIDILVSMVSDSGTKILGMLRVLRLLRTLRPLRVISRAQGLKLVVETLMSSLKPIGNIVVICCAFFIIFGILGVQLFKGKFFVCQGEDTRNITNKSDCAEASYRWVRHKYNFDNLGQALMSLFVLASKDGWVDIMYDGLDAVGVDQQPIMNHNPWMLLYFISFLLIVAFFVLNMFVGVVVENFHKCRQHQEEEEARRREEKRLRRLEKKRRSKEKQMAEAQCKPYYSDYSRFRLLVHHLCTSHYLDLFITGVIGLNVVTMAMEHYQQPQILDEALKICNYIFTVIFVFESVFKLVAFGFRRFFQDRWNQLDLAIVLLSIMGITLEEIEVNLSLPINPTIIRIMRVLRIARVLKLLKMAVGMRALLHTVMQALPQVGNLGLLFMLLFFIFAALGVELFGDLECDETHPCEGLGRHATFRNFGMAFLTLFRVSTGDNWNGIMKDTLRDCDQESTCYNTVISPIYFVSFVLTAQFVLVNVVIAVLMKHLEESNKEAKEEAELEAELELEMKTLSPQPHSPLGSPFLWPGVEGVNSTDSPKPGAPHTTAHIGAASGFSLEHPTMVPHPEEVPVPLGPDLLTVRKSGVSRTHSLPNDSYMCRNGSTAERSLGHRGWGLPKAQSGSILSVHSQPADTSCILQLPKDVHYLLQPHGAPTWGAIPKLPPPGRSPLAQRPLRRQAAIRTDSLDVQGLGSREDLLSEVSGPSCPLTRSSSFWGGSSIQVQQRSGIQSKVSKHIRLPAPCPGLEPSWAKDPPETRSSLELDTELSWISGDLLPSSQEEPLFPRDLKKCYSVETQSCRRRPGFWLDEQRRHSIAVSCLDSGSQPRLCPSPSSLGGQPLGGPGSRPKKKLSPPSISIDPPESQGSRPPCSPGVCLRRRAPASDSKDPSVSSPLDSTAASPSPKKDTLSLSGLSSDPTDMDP
T1 sequence (O95180 whole entry): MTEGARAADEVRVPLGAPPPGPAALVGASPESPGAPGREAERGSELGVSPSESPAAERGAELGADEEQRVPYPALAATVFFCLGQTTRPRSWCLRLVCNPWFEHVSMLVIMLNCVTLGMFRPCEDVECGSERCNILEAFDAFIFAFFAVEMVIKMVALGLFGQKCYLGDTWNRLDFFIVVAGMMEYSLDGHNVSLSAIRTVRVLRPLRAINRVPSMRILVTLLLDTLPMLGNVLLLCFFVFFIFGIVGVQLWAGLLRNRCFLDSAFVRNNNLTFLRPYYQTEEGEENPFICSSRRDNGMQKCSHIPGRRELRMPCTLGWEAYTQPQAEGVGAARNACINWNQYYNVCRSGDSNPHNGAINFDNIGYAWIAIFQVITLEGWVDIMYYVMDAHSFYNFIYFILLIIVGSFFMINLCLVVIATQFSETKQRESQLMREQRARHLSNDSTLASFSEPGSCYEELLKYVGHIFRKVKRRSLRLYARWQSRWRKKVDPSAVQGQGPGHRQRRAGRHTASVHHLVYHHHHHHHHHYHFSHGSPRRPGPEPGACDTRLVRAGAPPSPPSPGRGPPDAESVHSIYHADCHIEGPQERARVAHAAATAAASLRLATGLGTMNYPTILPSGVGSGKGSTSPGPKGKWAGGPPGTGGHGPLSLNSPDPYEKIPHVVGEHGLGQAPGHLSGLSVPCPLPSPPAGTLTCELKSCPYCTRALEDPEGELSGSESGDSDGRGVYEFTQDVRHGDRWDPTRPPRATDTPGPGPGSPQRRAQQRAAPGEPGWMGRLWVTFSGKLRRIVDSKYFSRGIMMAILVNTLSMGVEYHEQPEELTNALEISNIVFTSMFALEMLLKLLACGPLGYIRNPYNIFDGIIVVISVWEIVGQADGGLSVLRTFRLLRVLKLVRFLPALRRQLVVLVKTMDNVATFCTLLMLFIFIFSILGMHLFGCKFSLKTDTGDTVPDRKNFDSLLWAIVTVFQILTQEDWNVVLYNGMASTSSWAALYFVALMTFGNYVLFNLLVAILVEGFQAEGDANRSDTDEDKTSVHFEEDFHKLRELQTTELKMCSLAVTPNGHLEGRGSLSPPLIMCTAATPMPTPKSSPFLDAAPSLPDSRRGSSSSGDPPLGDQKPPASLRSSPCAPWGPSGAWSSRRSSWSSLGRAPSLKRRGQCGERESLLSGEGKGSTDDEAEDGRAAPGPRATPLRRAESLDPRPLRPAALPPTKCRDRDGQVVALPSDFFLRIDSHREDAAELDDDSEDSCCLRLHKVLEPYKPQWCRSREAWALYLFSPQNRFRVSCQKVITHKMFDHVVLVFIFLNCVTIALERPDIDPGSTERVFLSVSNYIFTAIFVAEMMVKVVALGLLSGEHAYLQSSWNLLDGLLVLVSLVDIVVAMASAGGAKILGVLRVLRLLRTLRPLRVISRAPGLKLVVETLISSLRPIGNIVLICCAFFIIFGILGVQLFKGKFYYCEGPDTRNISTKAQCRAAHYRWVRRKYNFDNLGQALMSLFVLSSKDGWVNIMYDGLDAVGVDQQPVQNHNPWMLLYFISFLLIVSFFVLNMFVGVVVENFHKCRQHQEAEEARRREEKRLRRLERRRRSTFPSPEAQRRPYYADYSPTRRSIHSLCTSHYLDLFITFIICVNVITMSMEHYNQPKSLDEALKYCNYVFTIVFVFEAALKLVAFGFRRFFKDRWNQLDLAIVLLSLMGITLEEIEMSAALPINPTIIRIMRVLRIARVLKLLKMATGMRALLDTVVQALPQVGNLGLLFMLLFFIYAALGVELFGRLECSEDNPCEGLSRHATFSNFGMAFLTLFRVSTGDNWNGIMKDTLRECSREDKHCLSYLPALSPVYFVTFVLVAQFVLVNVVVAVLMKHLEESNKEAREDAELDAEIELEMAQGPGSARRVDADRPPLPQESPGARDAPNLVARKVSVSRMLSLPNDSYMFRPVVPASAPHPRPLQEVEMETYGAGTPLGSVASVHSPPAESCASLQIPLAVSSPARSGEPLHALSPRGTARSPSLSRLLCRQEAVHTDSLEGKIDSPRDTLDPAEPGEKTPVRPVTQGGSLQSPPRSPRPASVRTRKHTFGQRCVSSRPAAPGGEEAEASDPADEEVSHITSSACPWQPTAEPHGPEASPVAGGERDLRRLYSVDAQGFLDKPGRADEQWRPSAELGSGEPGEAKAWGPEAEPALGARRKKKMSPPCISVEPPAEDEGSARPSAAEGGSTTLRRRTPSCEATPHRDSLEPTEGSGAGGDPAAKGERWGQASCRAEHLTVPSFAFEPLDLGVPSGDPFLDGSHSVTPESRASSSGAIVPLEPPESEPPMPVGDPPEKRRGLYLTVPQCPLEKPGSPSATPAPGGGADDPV

| inhibition at 100 µM [1] | inhibition at 10 µM [2, 3] | inhibitory effect (blocking percentage), Xenopus oocyte (α1H) at 100 μM [1] | SMILES | IC50 ([2]; HEK 293 cells expressing α1G) | inhibition at 10 µM [2, 4] |
| --- | --- | --- | --- | --- | --- |
| 20.9% |  |  | O=C(CC1c2ccccc2N=C(N2CCOCC2)N1c1ccccc1)OCc1ccccc1 (stereo not shown) [Compound 05027] |  |  |
| 32.7% |  |  | CN1CCN(C2=Nc3ccccc3C(CC(=O)OCc3ccccc3)N2c2ccccc2)CC1 (stereo not shown) [Compound 05029] |  |  |
| 14.8% |  |  | O=C(CC1c2ccccc2N=C(c2ccccc2)N1c1ccccc1)NCc1ccccc1 (stereo not shown) [Compound 05031] |  |  |
| 14.2% |  |  | O=C(CC1c2ccccc2N=C(c2ccccc2)N1c1ccccc1)OCc1ccccc1 (stereo not shown) [Compound 05032] |  |  |
| 38.9% |  |  | CCO/C(O)=C(\C#N)C1=Nc2ccccc2C(CC(=O)OC)N1c1ccccc1 (stereo not shown) [Compound 05033] |  |  |
| 66.8% | 43.5% |  | Nc1ccc(CNC(=O)CC2c3ccccc3N=C(N3CCCCC3)N2c2ccccc2)cc1 (stereo not shown) [Compound 05040] | 14.4 µM |  |
| 63.8% | 40.5% |  | O=C(CC1c2ccccc2N=C(N2CCOCC2)N1c1ccccc1)NCc1ccccc1 (stereo not shown) [KYS05026, 4-(N-benzylacetamido)-3-phenyl-2-(morpholin-1-yl)-3,4-dihydroquinazoline] | 21.6 µM |  |
| 86% |  | 86.0% | COCC(=O)O[C@]1(CCN(C)CCCc2nc3ccccc3[nH]2)CCc2cc(F)ccc2[C@@H]1C(C)C [Mibefradil, reference compound] |  |  |

| SMILES | inhibition at 100 µM [1] | inhibition at 10 µM [2, 3] | inhibitory effect (blocking percentage), Xenopus oocyte (α1H) at 100 μM [1] | IC50 ([2]; HEK 293 cells expressing α1G) | inhibition at 10 µM [2, 4] |
| --- | --- | --- | --- | --- | --- |
| CN1CCN(C2=Nc3ccccc3C(CC(=O)NCc3ccccc3)N2c2ccccc2)CC1 (stereo not shown) [KYS05028, 4-(N-benzylacetamido)-3-phenyl-2-(4-methylpiperazinyl)-3,4-dihydroquinazoline] | 70.3% |  |  | 35.8 µM | 29% |
| O=C(CC1c2ccccc2N=C(N2CCCCC2)N1c1ccccc1)NCc1ccc([N+](=O)[O-])cc1 (stereo not shown) [KYS05034, 4-[N-(4-nitrobenzyl)acetamido]-3-phenyl-2-(piperidine-1-yl)-3,4-dihydroquinazoline] | 91.9% |  |  | 2.5 µM | 92.3% |
